# From patent US11976059B2 (KOREA RESEARCH INSTITUTE OF CHEMICAL TECHNOLOGY, priority 2018, dated 2024)
# Assays:
# [1] = target: EGFR L858R/T790M/C797S mutant enzyme (Homo sapiens (Human), UniProt P00533, C797S/L858R/T790M); assay: EGFR mutant enzyme inhibition, HTRF system (Cisbio); type: biochemical; settings: ATP 1 mM, 37° C. for 2 hours
# Summary of the method: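 Recombinant EGFR L858R/T790M/C797S preincubated with compound, then 1 mM ATP and 0.5 μM biotinylated peptide added; 2 h at 37 °C in Tris pH 7.5, MgCl2, DTT. HTRF detection (streptavidin-XL665, Eu anti-phosphotyrosine), 615/665 nm ratio; IC50 from 7 concentrations.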
# Ba/F3 EGFR L858R/T790M = assay: Ba/F3 cell viability, CellTiter-Glo; type: cell-based; settings: for cell viability: administered alone, FIGS. 1 to 4; for cell viability compared to EAI045: co-administered with Cetuximab, 30 nM or 100 nM, FIGS. 6 and 7
# Protocol: In order to confirm that the compound represented by formula 1 according to the present invention acted as an allosteric inhibitor against EGFR wild-type and mutants, the inhibitory effect on EGFR wild-type and mutants in Ba/F3 cell lines was evaluated. In addition, in order to evaluate the cellular activity when the compound according to the present invention was co-administered with an existing drug, the cellular activity according to the combined administration was evaluated using Cetuximab used alone or in combination with chemotherapy in metastatic colorectal cancer and metastatic squamous head and neck cancer.
# Particularly, the activity of the compound of the present invention against the wild-type and mutant Ba/F3 EGFR cell lines was measured as follows using the CellTiter-Glo system of Promega. CellTiter-Glo assay is a method to confirm the cell viability by measuring ATP present in cells in cell culture state. Ba/F3 EGFR wild-type and Ba/F3 EGFR L858R, Ba/F3 EGFR L858R/T790M and Ba/F3 L858R/T790M/C797S mutant cell lines were purchased from Crown Bioscience and used. Ba/F3 EGFR wild-type and Ba/F3 EGFR L858R, Ba/F3 EGFR L858R/T790M and Ba/F3 L858R/T790M/C797S mutant cell lines were cultured in RPMI containing 10% FBS, 1% penicillin-streptomycin and 1 ug/ml of puromycine in a 37° C., 5% CO2 incubator.
# Analysis of the cell survival inhibitory effect of the compound according to each EGFR mutant was performed according to the following analytical reaction recipe.
# BaF3 cells were aliquoted into 2500 cells/50 ul per well of a 96 well cell culture plate and cultured for 24 hours, to which 50 ul of the compound represented by formula 1 was treated at the concentrations of 0, 0.03, 0.1, 0.3, and 1 μM. The plate treated with the compound was reacted in a 37° C. incubator for 72 hours, and then left at room temperature for 30 minutes according to the CellTiter-Glo assay instruction to maintain the plate temperature at room temperature. Thereafter, 100 μl of CellTiter-Glo reagent was treated to each well of the plate, followed by shaking incubation at room temperature for 10 minutes. Finally, the […] was quantitatively measured using a luminometer, and the ability of the compound to inhibit cell viability was confirmed. The values measured at concentrations of the compound were analyzed using Prism program (version 5.01, Graphpad Software, Inc.), and the IC50 value, an index of the inhibitory ability of the compound, was calculated.
# Sequence of EGFR L858R/T790M/C797S mutant enzyme (P00533 25-1210 T790M/C797S/L858R): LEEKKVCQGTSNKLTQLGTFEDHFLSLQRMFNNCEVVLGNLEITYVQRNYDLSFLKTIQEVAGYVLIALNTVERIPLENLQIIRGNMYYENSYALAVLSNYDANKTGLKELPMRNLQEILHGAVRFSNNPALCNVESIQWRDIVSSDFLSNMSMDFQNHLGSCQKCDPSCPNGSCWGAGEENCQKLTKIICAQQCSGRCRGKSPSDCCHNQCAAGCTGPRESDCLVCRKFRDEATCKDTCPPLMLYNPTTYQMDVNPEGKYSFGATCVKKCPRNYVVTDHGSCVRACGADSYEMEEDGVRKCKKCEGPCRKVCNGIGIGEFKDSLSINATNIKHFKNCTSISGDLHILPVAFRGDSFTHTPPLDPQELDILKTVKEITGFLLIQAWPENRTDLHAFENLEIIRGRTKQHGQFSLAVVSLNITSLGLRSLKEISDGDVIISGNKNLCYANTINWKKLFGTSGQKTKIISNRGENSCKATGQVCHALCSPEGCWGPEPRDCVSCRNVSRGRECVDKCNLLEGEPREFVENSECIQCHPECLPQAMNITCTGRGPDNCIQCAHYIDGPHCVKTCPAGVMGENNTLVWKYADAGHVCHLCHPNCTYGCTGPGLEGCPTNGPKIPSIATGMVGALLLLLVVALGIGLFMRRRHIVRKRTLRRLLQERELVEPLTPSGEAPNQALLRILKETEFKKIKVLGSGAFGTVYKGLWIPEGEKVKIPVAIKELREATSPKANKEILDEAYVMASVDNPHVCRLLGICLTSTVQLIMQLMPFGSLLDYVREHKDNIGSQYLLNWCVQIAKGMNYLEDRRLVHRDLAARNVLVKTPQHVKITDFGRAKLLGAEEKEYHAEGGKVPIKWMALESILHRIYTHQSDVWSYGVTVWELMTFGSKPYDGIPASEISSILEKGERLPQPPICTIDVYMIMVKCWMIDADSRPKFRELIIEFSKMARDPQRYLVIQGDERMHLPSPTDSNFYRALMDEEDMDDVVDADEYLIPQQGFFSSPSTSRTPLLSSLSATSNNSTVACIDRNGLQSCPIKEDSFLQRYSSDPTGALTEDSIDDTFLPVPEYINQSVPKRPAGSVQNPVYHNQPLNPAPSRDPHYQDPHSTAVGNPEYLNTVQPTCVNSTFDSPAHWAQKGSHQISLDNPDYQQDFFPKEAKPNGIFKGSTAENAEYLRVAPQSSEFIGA
IC50 [1],SMILES,cell viability (Ba/F3 EGFR L858R/T790M),cell viability compared to EAI045 (Ba/F3 EGFR L858R/T790M)
8 nM,"O=C1c2cc(-c3ccc(N4CCNCC4)cc3)ccc2CN1[C@@H](c1cc2ccccc2[nH]1)c1cc(F)ccc1O [Example 32, (R)-2-((5-fluoro-2-hydroxyphenyl)(1H-indole-2-yl)methyl)-6-(4-(piperazine-1-yl)phenyl)isoindolin-1-one]",increased cell viability,significantly reduced the cell viability
12 nM,"O=C1c2cc(-c3ccc(N4CCNCC4)cc3)ccc2CN1[C@@H](c1cc2ccccc2[nH]1)c1cc(Cl)ccc1O [Example 33, (R)-2-((5-chloro-2-hydroxyphenyl)(1H-indole-2-yl)methyl)-6-(4-(piperazine-1-yl)phenyl)isoindolin-1-one]",increased cell viability,significantly reduced the cell viability
